From US12098144B2, “Piperazine indazole glucocorticoid receptor antagonists” (Corcept Therapeutics Incorporated, priority 2021, dated 2024)

What follows are molecules tested against T1, glucocorticoid receptor (Homo sapiens, UniProt P04150) (assay: Hep G2 TAT Ki: inhibition of dexamethasone-induced TAT in HepG2 cells (96 well)). Conditions: challenge of 100 nM dexamethasone, IC50 converted to Ki by Cheng and Prusoff equation.
T1 construct: endogenous in cells; ATCC cat
T1 sequence (P04150 1-777): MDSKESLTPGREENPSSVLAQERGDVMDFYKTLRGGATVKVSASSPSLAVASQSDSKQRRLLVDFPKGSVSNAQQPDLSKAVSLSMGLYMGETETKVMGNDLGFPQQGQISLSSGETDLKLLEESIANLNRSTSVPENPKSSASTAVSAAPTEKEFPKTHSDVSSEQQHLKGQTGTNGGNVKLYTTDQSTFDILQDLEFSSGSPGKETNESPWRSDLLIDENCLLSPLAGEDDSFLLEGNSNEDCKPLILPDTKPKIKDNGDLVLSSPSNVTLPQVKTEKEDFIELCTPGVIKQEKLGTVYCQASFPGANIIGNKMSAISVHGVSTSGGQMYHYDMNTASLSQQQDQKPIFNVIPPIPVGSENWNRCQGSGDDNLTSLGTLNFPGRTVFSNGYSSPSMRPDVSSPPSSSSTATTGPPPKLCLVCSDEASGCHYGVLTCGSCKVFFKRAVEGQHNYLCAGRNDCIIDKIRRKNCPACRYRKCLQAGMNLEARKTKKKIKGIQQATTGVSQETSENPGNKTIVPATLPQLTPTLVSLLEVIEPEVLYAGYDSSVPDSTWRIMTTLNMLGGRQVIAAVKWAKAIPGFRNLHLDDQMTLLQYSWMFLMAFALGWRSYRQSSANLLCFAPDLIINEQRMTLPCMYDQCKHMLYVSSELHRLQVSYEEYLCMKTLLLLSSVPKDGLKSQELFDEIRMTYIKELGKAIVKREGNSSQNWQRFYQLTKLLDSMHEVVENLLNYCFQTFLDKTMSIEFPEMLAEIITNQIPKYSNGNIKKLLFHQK
Assay type: cell-based
How it was run: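 Cells lysed 15 min at 4 °C; TAT enzyme reaction 2 h at 37 °C, stopped with KOH, 30 min further at 37 °C. Inhibition fitted to 4-parameter logistic.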

SMILES	Ki
Cc1cc2c(cnn2-c2ccc(F)cc2)cc1C1CN(S(=O)(=O)c2nccs2)CCN1CC(C)C (single isomer, unassigned) [Example 109, 2-((3-(1-(4-fluorophenyl)-6-methyl-1H-indazol-5-yl)-4-isobutylpiperazin-1-yl)sulfonyl)thiazole]	0.012 µM
Cc1cc2c(cnn2-c2ccc(F)cc2)cc1C1CN(S(=O)(=O)c2cnn(CC(F)(F)F)c2)CCN1CC(C)C (single isomer, unassigned) [Example 110, 1-(4-fluorophenyl)-5-(1-isobutyl-4-((1-(2,2,2-trifluoroethyl)-1H-pyrazol-4-yl)sulfonyl)piperazin-2-yl)-6-methyl-1H-indazole]	0.027 µM
Cc1cc2c(cnn2-c2ccc(F)cc2)cc1C1CN(S(=O)(=O)C2COC2)CCN1CC(C)C (single isomer, unassigned) [Example 111, 1-(4-fluorophenyl)-5-(1-isobutyl-4-(oxetan-3-ylsulfonyl)piperazin-2-yl)-6-methyl-1H-indazole]	0.065 µM
Cc1cc2c(cnn2-c2ccc(F)cc2)cc1C1CN(S(=O)(=O)c2cnccc2C)CCN1CC(C)C (single isomer, unassigned) [Example 112, 1-(4-fluorophenyl)-5-(1-isobutyl-4-((4-methylpyridin-3-yl)sulfonyl)piperazin-2-yl)-6-methyl-1H-indazole]	0.036 µM
Cc1cc2c(cnn2-c2ccc(F)cc2)cc1C1CN(S(=O)(=O)Cc2ccc(C#N)cc2)CCN1CC(C)C (single isomer, unassigned) [Example 114, 4-(((3-(1-(4-fluorophenyl)-6-methyl-1H-indazol-5-yl)-4-isobutylpiperazin-1-yl)sulfonyl)methyl)benzonitrile]	0.055 µM
Cc1cc2c(cnn2-c2ccc(F)cc2)cc1C1CN(S(=O)(=O)c2ccccn2)CCN1CC(C)C (single isomer, unassigned) [Example 115, 1-(4-fluorophenyl)-5-(1-isobutyl-4-(pyridin-2-ylsulfonyl)piperazin-2-yl)-6-methyl-1H-indazole]	0.024 µM
Cc1cc2c(cnn2-c2ccc(F)cc2)cc1C1CN(S(=O)(=O)C2CCC2)CCN1CC(C)C (single isomer, unassigned) [Example 116, 5-(4-(cyclobutylsulfonyl)-1-isobutylpiperazin-2-yl)-1-(4-fluorophenyl)-6-methyl-1H-indazole]	0.025 µM
Cc1cc2c(cnn2-c2ccc(F)cc2)cc1C1CN(S(=O)(=O)c2ccc(C#N)nc2)CCN1CC(C)C (single isomer, unassigned) [Example 117, 5-((3-(1-(4-fluorophenyl)-6-methyl-1H-indazol-5-yl)-4-isobutylpiperazin-1-yl)sulfonyl)picolinonitrile]	0.038 µM
Cc1cc2c(cnn2-c2ccc(F)cc2)cc1C1CN(S(=O)(=O)c2cnn(C)n2)CCN1CC1CNC(=O)C1 (single isomer, unassigned) [Example 118, 4-((2-(1-(4-fluorophenyl)-6-methyl-1H-indazol-5-yl)-4-((2-methyl-2H-1,2,3-triazol-4-yl)sulfonyl)piperazin-1-yl)methyl)pyrrolidin-2-one]	0.19 µM
Cc1cc2c(cnn2-c2ccc(F)cc2)cc1C1CN(S(=O)(=O)c2cnn(C)n2)CCN1CC1CC(C)(C)C1 (single isomer, unassigned) [Example 119, 5-(1-((3,3-dimethylcyclobutyl)methyl)-4-((2-methyl-2H-1,2,3-triazol-4-yl)sulfonyl)piperazin-2-yl)-1-(4-fluorophenyl)-6-methyl-1H-indazole]	0.019 µM
Cc1cc2c(cnn2-c2ccc(F)cc2)cc1C1CN(S(=O)(=O)c2cnn(C)n2)CCN1CC1CCCO1 (single isomer, unassigned) [Example 120, 1-(4-fluorophenyl)-6-methyl-5-(4-((2-methyl-2H-1,2,3-triazol-4-yl)sulfonyl)-1-((tetrahydrofuran-2-yl)methyl)piperazin-2-yl)-1H-indazole]	0.065 µM
Cc1cc2c(cnn2-c2ccc(F)cc2)cc1C1CN(S(=O)(=O)c2cnn(C)n2)CCN1CC1CC(=O)N(C)C1 (single isomer, unassigned) [Example 121, 4-((2-(1-(4-fluorophenyl)-6-methyl-1H-indazol-5-yl)-4-((2-methyl-2H-1,2,3-triazol-4-yl)sulfonyl)piperazin-1-yl)methyl)-1-methylpyrrolidin-2-one]	0.27 µM

Further lines, results first:

Ki	SMILES
0.071 µM	CC[C@H](C)N1CCN(S(=O)(=O)c2cnn(C)n2)C[C@@H]1c1cc2cnn(-c3ccc(F)cc3)c2cc1C (single isomer, unassigned) [Example 123, 5-(1-(sec-butyl)-4-((2-methyl-2H-1,2,3-triazol-4-yl)sulfonyl)piperazin-2-yl)-1-(4-fluorophenyl)-6-methyl-1H-indazole]
0.014 µM	Cc1ncc(S(=O)(=O)N2CCN(CC3CCC3)C(c3cc4cnn(-c5ccc(F)cc5)c4cc3C)C2)s1 (single isomer, unassigned) [Example 124, 5-((4-(cyclobutylmethyl)-3-(1-(4-fluorophenyl)-6-methyl-1H-indazol-5-yl)piperazin-1-yl)sulfonyl)-2-methylthiazole]
0.087 µM	CC(=O)CN1CCN(S(=O)(=O)c2cnn(C)n2)CC1c1cc2cnn(-c3ccc(F)cc3)c2cc1C (single isomer, unassigned) [Example 125, 1-(2-(1-(4-fluorophenyl)-6-methyl-1H-indazol-5-yl)-4-((2-methyl-2H-1,2,3-triazol-4-yl)sulfonyl)piperazin-1-yl)propan-2-one]
0.062 µM	Cc1cc2c(cnn2-c2ccc(F)cc2)cc1[C@H]1CN(S(=O)(=O)c2cnn(C)n2)C[C@@H](C)N1CC(C)C (single isomer, unassigned) [Example 126]
0.014 µM	Cc1cc2c(cnn2-c2ccc(F)cc2)cc1C1CN(S(=O)(=O)c2cnn(C)c2)CCN1CCC(F)(F)F (single isomer, unassigned) [Example 128, 1-(4-fluorophenyl)-6-methyl-5-(4-((1-methyl-1H-pyrazol-4-yl)sulfonyl)-1-(3,3,3-trifluoropropyl)piperazin-2-yl)-1H-indazole]
0.013 µM	Cc1cc2c(cnn2-c2ccc(F)cc2)cc1C1CN(S(=O)(=O)c2cnn(C)c2C)CCN1CCC(F)(F)F (single isomer, unassigned) [Example 129, 5-(4-((1,5-dimethyl-1H-pyrazol-4-yl)sulfonyl)-1-(3,3,3-trifluoropropyl)piperazin-2-yl)-1-(4-fluorophenyl)-6-methyl-1H-indazole]
0.0077 µM	Cc1cc2c(cnn2-c2ccc(F)cc2)cc1C1CN(S(=O)(=O)c2ccc(C#N)cc2)CCN1CCC(F)(F)F (single isomer, unassigned) [Example 130, 4-((3-(1-(4-fluorophenyl)-6-methyl-1H-indazol-5-yl)-4-(3,3,3-trifluoropropyl)piperazin-1-yl)sulfonyl)benzonitrile]
0.013 µM	CCn1cc(S(=O)(=O)N2CCN(CCC(F)(F)F)C(c3cc4cnn(-c5ccc(F)cc5)c4cc3C)C2)cn1 (single isomer, unassigned) [Example 131, 5-(4-((1-ethyl-1H-pyrazol-4-yl)sulfonyl)-1-(3,3,3-trifluoropropyl)piperazin-2-yl)-1-(4-fluorophenyl)-6-methyl-1H-indazole]
0.013 µM	Cc1cc2c(cnn2-c2ccc(F)cc2)cc1C1CN(S(=O)(=O)c2cccnc2)CCN1CCC(F)(F)F (single isomer, unassigned) [Example 132, 1-(4-fluorophenyl)-6-methyl-5-(4-(pyridin-3-ylsulfonyl)-1-(3,3,3-trifluoropropyl)piperazin-2-yl)-1H-indazole]
0.011 µM	Cc1ncc(S(=O)(=O)N2CCN(CCC(F)(F)F)C(c3cc4cnn(-c5ccc(F)cc5)c4cc3C)C2)s1 (single isomer, unassigned) [Example 133, 5-((3-(1-(4-fluorophenyl)-6-methyl-1H-indazol-5-yl)-4-(3,3,3-trifluoropropyl)piperazin-1-yl)sulfonyl)-2-methylthiazole]
0.0065 µM	Cc1nc(S(=O)(=O)N2CCN(CCC(F)(F)F)C(c3cc4cnn(-c5ccc(F)cc5)c4cc3C)C2)cs1 (single isomer, unassigned) [Example 134, 4-((3-(1-(4-fluorophenyl)-6-methyl-1H-indazol-5-yl)-4-(3,3,3-trifluoropropyl)piperazin-1-yl)sulfonyl)-2-methylthiazole]
0.023 µM	CCn1ncc(S(=O)(=O)N2CCN(CCC(F)(F)F)C(c3cc4cnn(-c5ccc(F)cc5)c4cc3C)C2)n1 (single isomer, unassigned) [Example 135, 5-(4-((2-ethyl-2H-1,2,3-triazol-4-yl)sulfonyl)-1-(3,3,3-trifluoropropyl)piperazin-2-yl)-1-(4-fluorophenyl)-6-methyl-1H-indazole]
